Test results as given in patent publication US11834463B2, “High affinity macrocyclic FKB51-inhibitors for treatment of psychiatric disorders” (priority 2020, dated 2023).
Where “and” joins values, the source holds several entries; their conditions need not be identical. Equal entries are not always repeated. Where two headings read alike, the source gives them in different places.

Tests used:
FKBP12 = FKBP12 (Homo sapiens, UniProt P62942); experiment: competitive fluorescence polarization assay, binding to FKBP12
Method: (§1) All macrocyclic compounds were tested in a competitive fluorescence polarization assay for binding towards FKBP51 as well as the homologs FKBP12, FKBP12.6 and FKBP52 (Table 1).
(§2) Example 8: […] of the Macrocyclic FKBP51 Ligands by SPPS

FKBP51FK1 = target: T1, FKBP51FK1 (Homo sapiens, UniProt Q13451); experiment: biochemical
T1 sequence (Q13451 42-130 limits assumed): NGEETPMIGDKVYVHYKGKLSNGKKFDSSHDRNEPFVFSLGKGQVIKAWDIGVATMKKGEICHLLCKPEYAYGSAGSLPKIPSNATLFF
Method: as §1, §2

FKBP12.6 = FKBP12.6 (Homo sapiens, UniProt P68106); experiment: competitive fluorescence polarization assay, binding to FKBP12.6
Method: as §1, §2

[1] = not given; remark: listed apart in the source
[2] = affinity, same values as Table 2 FKBP51FK1
[3] = Table 1, competitive Fluorescence Polarization Assay, read-out: Ki [nM] FKBP12
[4] = Ki [nM] FKBP51FK1, Table 1, competitive Fluorescence Polarization Assay
[5] = Table 1, competitive Fluorescence Polarization Assay, read-out: Ki [nM] FKBP12.6

Chain of FKBP12.6 (P68106 whole entry): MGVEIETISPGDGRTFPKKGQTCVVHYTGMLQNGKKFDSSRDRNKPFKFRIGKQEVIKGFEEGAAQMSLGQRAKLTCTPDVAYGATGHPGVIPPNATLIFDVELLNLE
Chain of FKBP12 (P62942 whole entry): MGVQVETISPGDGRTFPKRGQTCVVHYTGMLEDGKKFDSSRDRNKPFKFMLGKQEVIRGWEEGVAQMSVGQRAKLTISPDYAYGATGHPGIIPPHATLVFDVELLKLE

Ki (FKBP12; [3])	Ki (FKBP51FK1; [4])	Ki (FKBP12.6; [5])	SMILES	other results
–	–	–	COc1ccc(CC[C@@H]2OC(=O)[C@H]3CCCCN3C(=O)[C@@H](C3CCCCC3)c3cc(OC)c(OC)c(c3)OCCOc3cccc2c3)cc1OC	ring closure, yield after HPLC (from COc1ccc(CC[C@H](OC(=O)[C@H]2CCCCN2C(=O)[C@H](c2cc(OC)c(OC)c(OCCI)c2)C2CCCCC2)c2cccc(O)c2)cc1OC, ether bond, 17-membered ring, K2CO3 (2 equiv), MeCN, 1.0 mM): 42%
–	–	–	COc1ccc(CC[C@H]2OC(=O)[C@@H]3CCCCN3C(=O)[C@@H](C3CCCCC3)NC(=O)CN(C)C(=O)COc3cccc2c3)cc1OC [Compound 89, (2R,5S,12R)-12-cyclohexyl-2-[2-(3,4-dimethoxyphenyl)ethyl]-16-methyl-3,19-dioxa-10,13,16-triazatricyclo[18.3.1.0^5,10]tetracosa-1(24),20,22-triene-4,11,14,17-tetrone]	Ki (FKBP12; Table 2, read-out: FKBP12 Ki): > 80000 nM; Ki (FKBP51FK1; [2]): 3100 nM; Ki (FKBP12.6; Table 2, read-out: FKBP12.6 Ki): > 80000 nM
97 nM	11 nM	83 nM	COc1ccc(CC[C@H]2OC(=O)[C@@H]3CCCCN3C(=O)[C@@H](C3CCCCC3)c3cc(OC)c(c(OC)c3)OCC(O)C(O)COc3cccc2c3)cc1OC (mixture of isomers) [Compound 63]	–
–	–	–	COc1ccc(CC[C@H]2OC(=O)[C@@H]3CCCCN3C(=O)[C@@H](C3CCCCC3)NC(=O)[C@H](C)NC(=O)COc3cccc2c3)cc1OC [Compound 91, (2R,5S,12R,15S)-12-cyclohexyl-2-[2-(3,4-dimethoxyphenyl)ethyl]-15-methyl-3,19-dioxa-10,13,16-triazatricyclo[18.3.1.0^5,10]tetracosa-1(24),20,22-triene-4,11,14,17-tetrone]	Ki (FKBP12; Table 2, read-out: FKBP12 Ki): > 80000 nM; affinity (in words) (FKBP51FK1): bound more weakly; Ki (FKBP12.6; Table 2, read-out: FKBP12.6 Ki): > 80000 nM
289 nM	56 nM	263 nM	COc1ccc(CC[C@H]2OC(=O)[C@@H]3CCCCN3C(=O)[C@@H](C3CCCCC3)c3cc(OC)c(c(OC)c3)OC/C=C/COc3cccc2c3)cc1OC [31-(E)]	–
34 nM	13 nM	17 nM	COc1ccc(CCC2OC(=O)C3CCCCN3C(=O)C(C3CCCCC3)c3cc(OC)c(OC)c(c3)OCC(O)C(O)COc3cccc2c3)cc1OC (single isomer, unassigned) [Compound 64b]	–
412 nM	64 nM	190 nM	COc1ccc(CC[C@H]2OC(=O)[C@@H]3CCCCN3C(=O)[C@@H](C3CCCCC3)c3cc(OC)c(c(OC)c3)OCCOc3cccc2c3)cc1OC [Compound 55]	–
308 nM	47 nM	78 nM	COc1ccc(CC[C@H]2OC(=O)[C@@H]3CCCCN3C(=O)[C@@H](C3CCCCC3)c3cc(OC)c(OC)c(c3)OCCOc3cccc2c3)cc1OC [Compound 57]	–
–	–	–	COc1ccc(CC[C@@H](OC(=O)[C@@H]2CCCCN2C(=O)[C@H](c2cc(OC)c(OC)c(OC)c2)C2CCCCC2)c2cccc(OCC(=O)O)c2)cc1OC [SAFit1, reference compound]	Ki (FKBP12; Table 2, read-out: FKBP12 Ki): 163 ± 9 nM; Ki (FKBP51FK1; read-out: FKBP51FK1 Ki, Table 2, [a] standard error from three, [c] error from two independent measurements): 4 ± 1 nM; Ki (FKBP12.6; Table 2, read-out: FKBP12.6 Ki): 19 ± 2 nM
–	–	–	COc1ccc(CC[C@H]2OC(=O)[C@@H]3CCCCN3C(=O)[C@@H](C3CCCCC3)C/C=C/COCCOc3cccc2c3)cc1OC	ring closure, isolated yield ([1]; from C=CCOCCOc1cccc([C@H](CCc2ccc(OC)c(OC)c2)OC(=O)[C@H]2CCCCN2C(=O)[C@H](CC=C)C2CCCCC2)c1, rcm bond, 18-membered ring, Grubbs II (0.1 eq), DCM, 0.5 mM, 30.0 °C, 2.5 h): 92%
38 nM	8 nM	22 nM	COc1ccc(CC[C@H]2OC(=O)[C@@H]3CCCCN3C(=O)[C@@H](C3CCCCC3)c3cc(OC)c(OC)c(c3)OCCC(=O)CCOc3cccc2c3)cc1OC [Compound 61a]	–
449 nM	80 nM	116 nM	COc1ccc(CC[C@H]2OC(=O)[C@@H]3CCCCN3C(=O)[C@@H](C3CCCCC3)c3cc(OC)c(OC)c(c3)OCCCOCCCCOc3cccc2c3)cc1OC [Compound 46]	–
–	–	–	COc1ccc(CCC2OC(=O)C3CCCCN3C(=O)C(C3CCCCC3)c3cc(OC)c(OC)c(c3)OC/C=C/COc3cccc2c3)cc1OC (centres unmarked) [35-(E)]	Ki (FKBP12; Table 1, unit μM printed in the cell, read-out: Ki FKBP12): > 100000 nM; Ki (FKBP51FK1; Ki FKBP51FK1, Table 1, unit μM printed in the cell): > 5000 nM; Ki (FKBP12.6; Table 1, unit μM printed in the cell, read-out: Ki FKBP12.6): > 100000 nM
–	–	–	COc1ccc(CC[C@@H]2OC(=O)[C@H]3CCCCN3C(=O)[C@@H](C3CCCCC3)c3cc(OC)c(OC)c(c3)OCCCOc3cccc2c3)cc1OC	ring closure, yield after HPLC (from COc1ccc(CC[C@H](OC(=O)[C@H]2CCCCN2C(=O)[C@H](c2cc(OC)c(OC)c(OCCCI)c2)C2CCCCC2)c2cccc(O)c2)cc1OC, ether bond, 18-membered ring, K2CO3 (2 equiv), MeCN, 0.3 mM): 26%
–	–	–	COc1ccc(CC[C@H]2OC(=O)[C@@H]3CCCCN3C(=O)[C@@H](C3CCCCC3)NC(=O)C3(CCCC3)NC(=O)COc3cccc2c3)cc1OC [Compound 88, (2′R,5'S,12′R)-12′-cyclohexyl-2′-[2-(3,4-dimethoxyphenyl)ethyl]-3′, 19′-dioxa-10′, 13′, 16′-triazaspiro[cyclopentane-1,15′-tricyclo[18.3.1.0^5,10]tetracosane]-1′(24′),20′, 22′-triene-4′, 11′, 14′, 17′-tetrone]	Ki (FKBP12; Table 2, read-out: FKBP12 Ki): > 80000 nM; Ki (FKBP51FK1; [2]): 1300 nM; Ki (FKBP12.6; Table 2, read-out: FKBP12.6 Ki): > 80000 nM
23 nM	4 nM	10 nM	COc1ccc(CCC2OC(=O)C3CCCCN3C(=O)C(C3CCCCC3)c3cc(OC)c(OC)c(c3)OCC(O)C(O)COc3cccc2c3)cc1OC (single isomer, unassigned) [Compound 64a]	–
204 nM	102 nM	198 nM	COc1ccc(CC[C@H]2OC(=O)[C@@H]3CCCCN3C(=O)[C@@H](C3CCCCC3)c3cc(OC)c(c(OC)c3)OCCCCCOc3cccc2c3)cc1OC [Compound 40]	–
–	–	–	COc1ccc(CC[C@H]2OC(=O)[C@@H]3CCCCN3C(=O)[C@@H](C3CCCCC3)NC(=O)[C@@H]3CCCN3C(=O)COc3cccc2c3)cc1OC [Compound 92, (9S,12R,19S,22R)-12-cyclohexyl-22-[2-(3,4-dimethoxyphenyl)ethyl]-2,21-dioxa-5,11,14-triazatetracyclo[21.3.1.0^5,9.0^14,19]heptacosa-1(26),23(27),24-triene-4,10,13,20-tetrone]	Ki (FKBP12; Table 2, read-out: FKBP12 Ki): > 80000 nM; affinity (in words) (FKBP51FK1): substantially reduced affinity; Ki (FKBP12.6; Table 2, read-out: FKBP12.6 Ki): > 80000 nM
118 nM	77 nM	96 nM	COc1ccc(CC[C@H]2OC(=O)[C@@H]3CCCCN3C(=O)[C@@H](C3CCCCC3)c3cc(OC)c(OC)c(c3)OCC/C=C\COc3cccc2c3)cc1OC [36-(Z)]	–
–	–	–	COc1ccc(CC[C@@H]2OC(=O)[C@H]3CCCCN3C(=O)[C@@H](C3CCCCC3)c3cc(OC)c(OC)c(c3)OCCCOCC=CCOc3cccc2c3)cc1OC	ring closure, yield after HPLC (from C=CCOCCCOc1cc([C@@H](C(=O)N2CCCC[C@@H]2C(=O)O[C@@H](CCc2ccc(OC)c(OC)c2)c2cccc(OCC=C)c2)C2CCCCC2)cc(OC)c1OC, rcm bond, 23-membered ring, Grubbs II (0.1 equiv)/1,4-benzoquinone, DCM, 1.0 mM): 58% and 33%
173 nM	93 nM	192 nM	COc1ccc(CCC2OC(=O)C3CCCCN3C(=O)C(C3CCCCC3)c3cc(OC)c(OC)c(c3)OC/C=C\COc3cccc2c3)cc1OC (centres unmarked) [35-(Z)]	–
–	–	–	COc1ccc(CC[C@H]2OC(=O)[C@@H]3CCCCN3C(=O)[C@@H](C3CCCCC3)NC(=O)C(C)(C)NC(=O)COc3cc(O)cc2c3)cc1OC [Compound 103, (2R,5S,12R)-12-cyclohexyl-2-[2-(3,4-dimethoxyphenyl)ethyl]-22-hydroxy-15,15-dimethyl-3,19-dioxa-10,13,16-triazatricyclo[18.3.1.0^5,10]tetracosa-1(24),20,22-triene-4,11,14,17-tetrone]	affinity (in words) (FKBP51FK1): bound similarly to the glycine derivative 83; Ki (FKBP51FK1; FKBP51FK1 Ki [μM], Table 2, [a] standard error from three, [c] error from two independent measurements): 370 nM; ring closure, isolated yield ([1]; from H-Aib-dChg-Pip-[O-(R)-CH(CH2CH2-3,4-dimethoxyphenyl)-C6H3(O-resin)-OCH2CO]-OH?, amide bond, 17-membered ring, resin, with chain assembly): 20%
–	–	–	COc1ccc(CC[C@@H]2OC(=O)[C@H]3CCCCN3C(=O)[C@@H](C3CCCCC3)c3cc(OC)c(c(OC)c3)OCCCOc3cccc2c3)cc1OC	ring closure, isolated yield ([1]; from COc1ccc(CC[C@H](OC(=O)[C@H]2CCCCN2C(=O)[C@H](c2cc(OC)c(OCCCI)c(OC)c2)C2CCCCC2)c2cccc(O)c2)cc1OC, ether bond, 19-membered ring, K2CO3 (2 equiv), MeCN, 0.5 mM): 81%
449 nM	118 nM	230 nM	COc1ccc(CC[C@H]2OC(=O)[C@@H]3CCCCN3C(=O)[C@@H](C3CCCCC3)c3cc(OC)c(c(OC)c3)OCCOCCCCOc3cccc2c3)cc1OC [Compound 41]	–
401 nM	54 nM	87 nM	COc1ccc(CC[C@H]2OC(=O)[C@@H]3CCCCN3C(=O)[C@@H](C3CCCCC3)c3cc(OC)c(OC)c(c3)OCCCOc3cccc2c3)cc1OC [Compound 58]	–
